For 46 compounds, IC50 results are on record in patent US8299070B2, “Indole compounds and pharmaceutical use thereof” (Japan Tobacco Inc., priority 2009, dated 2012).

In the first assay the target is T1, hITK enzyme (FLAG-tagged full-length hITK) (Homo sapiens, UniProt Q08881).
T1 construct: strongly expressing FLAG-tagged full-length hITK in Sf9 cells; FLAG; made in house; host or cells: Sf9 insect cells (ITK); Escherichia coli (GST-SLP76 substrate)
T1 sequence (Q08881 1-620): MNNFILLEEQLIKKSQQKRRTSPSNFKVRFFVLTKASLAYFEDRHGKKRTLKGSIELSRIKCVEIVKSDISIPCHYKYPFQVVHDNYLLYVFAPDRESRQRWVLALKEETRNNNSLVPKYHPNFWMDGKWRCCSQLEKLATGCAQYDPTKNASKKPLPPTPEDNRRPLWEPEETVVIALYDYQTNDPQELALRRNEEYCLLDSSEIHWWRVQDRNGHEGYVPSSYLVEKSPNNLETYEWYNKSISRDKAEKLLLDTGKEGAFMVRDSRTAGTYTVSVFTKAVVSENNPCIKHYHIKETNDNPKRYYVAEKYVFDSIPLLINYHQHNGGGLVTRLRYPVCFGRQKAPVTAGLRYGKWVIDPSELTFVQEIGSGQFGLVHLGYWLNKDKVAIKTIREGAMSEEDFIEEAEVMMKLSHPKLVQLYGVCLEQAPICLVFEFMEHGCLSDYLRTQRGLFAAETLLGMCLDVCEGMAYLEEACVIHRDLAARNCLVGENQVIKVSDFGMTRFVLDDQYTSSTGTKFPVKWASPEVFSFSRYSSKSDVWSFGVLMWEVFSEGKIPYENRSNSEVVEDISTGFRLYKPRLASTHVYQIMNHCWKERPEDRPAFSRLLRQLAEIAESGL
Description: ITK inhibitory activity (HTRF kinase assay, biotinylated GST-SLP76 substrate). The class given is biochemical. Conditions: ATP concentration of the substrate solution 6 μmol/L (Examples 380 and 381). The protocol:
(1) Preparation of hITK Enzyme
hITK enzyme was prepared by strongly expressing FLAG-tagged full-length hITK in Sf9 cells, and purifying same by anti-FLAG antibody column.
(2) Preparation of biotinylated GST-SLP76
Biotinylated GST-SLP76 was prepared by strongly expressing GST-tagged SLP76 (aa95-175) in Escherichia coli, purifying same by glutathion sepharose column and biotinylating same.
(3) Preparation of Solution
(i) buffer for dilution: 20 mmol/L 3-(N-morpholino)propanesulfonic acid (pH 7.0) (DOJINDO LABORATORIES), 10 mmol/L magnesium chloride (Sigma-Aldrich Corporation), 1 mmol/L dithiothreitol (Nacalai Tesque, Inc.), 0.1% gelatin (Sigma-Aldrich Corporation)
(ii) substrate solution: 0.2 μg/mL biotinylated GST-SLP76, 100 μmol/L ATP (Sigma-Aldrich Corporation), prepared with buffer for dilution
(iii) test compound solution: test compound, 50% dimethyl sulfoxide (DMSO), prepared with buffer for dilution
(iv) enzyme solution: 50 ng/mL hITK enzyme, prepared with buffer for dilution
(v) control solution: solution after removal of test compound from the mixture of the above-mentioned (i), (ii) and (iii)
(vi) blank solution: solution after removal of ATP from the mixture of the above-mentioned (i), (ii) and (iii)
(vii) detection buffer: 0.1 μg/mL Anti-Phosphotyrosine (PT66)-Cryptate (Cisbio), 2.5 μg/mL streptavidin-binding XL665 (Cisbio), 50 mmol/L 4-(2-hydroxyethyl)-1-piperazineethanesulfonic acid (pH 7.4) (Nacalai Tesque, Inc.), 30 mmol/L EDTA (NipponGene), 0.1% TritonX (Sigma-Aldrich Corporation), 200 mmol/L potassium fluoride (Wako Pure Chemical Industries, Ltd.), 0.05% bovine serum albumin (Sigma-Aldrich Corporation) (4) Measurement of ITK Inhibitory Activity
A substrate solution (25 μL/well), a test compound solution (5 μL/well) and an enzyme solution (20 μL/well) were added into 96 well half-area white plate (plate, Corning Incorporated 3642) to start a kinase reaction. The plate was stood still at room temperature for 10 min. Then, a detection buffer (50 μL/well) was added to the plate. After 2 hr from the addition of the detection buffer, fluorescence intensity at 620 nm (excited at 337 nm), and fluorescence intensity at 665 nm ([…]) were measured by a fluorescence microplate reader.
The Ratio (fluorescence intensity at 665 nm/fluorescence intensity at 620 nm×10000) of each test compound was calculated from the measured fluorescence intensity. Simultaneously, the measurement was performed using a blank solution and a control solution, and % of control value of each test compound was calculated from the following formula. % of control=(Ratio of test compound−Ratio of blank)/(Ratio of control−Ratio of blank)×100 ITK inhibitory rate (%)=100−(% of control)
The IC50 value was calculated from the test compound concentrations at 2 points sandwiching 50% ITK inhibitory rate.
In the test for the compounds of Examples 380 and 381, the ATP concentration of the substrate solutions was 6 μmol/L.
In general terms: Time-resolved FRET reads energy transfer from a long-lived donor to a nearby acceptor.
A word on the IC50: it is the concentration that gives 50% inhibition. In the case of `C[C@H](C(=O)N(C)c1ccc2cc(-c3n[nH]c4c3CCC(C)(C)C4)[nH]c2c1)N1CCOCC1` [Example 381], the IC50 was 2 nM.

Staying with this assay, now noted: IC50 calculated from the 2 test compound concentrations sandwiching 50% ITK inhibitory rate.
`CN(C(=O)CN1CC(O)CC1=O)c1ccc2cc(-c3n[nH]c4c3CCC(C)(C)C4)[nH]c2c1` (stereo not shown) [Example 164]: the half-inhibitory concentration (IC50) is 3 nM. As to `CN(C(=O)c1cccc(C(F)(F)F)c1)c1ccc2cc(-c3n[nH]c4c3CCC(C)(C)C4)[nH]c2c1` [Example 31], the IC50 is 34 nM. `COCC(C)NC(=O)c1ccc2cc(-c3n[nH]c4c3CCC(C)(C)C4)[nH]c2c1` (stereo not shown) [Example 21]: the IC50 is 30 nM. For `CC1CCN(c2ccc3cc(-c4n[nH]c5c4CCC(C)(C)C5)[nH]c3c2)C1=O` (stereo not shown) [Example 229], the IC50 is 38 nM.

`CN(C(=O)CC1CCOCC1)c1ccc2cc(-c3n[nH]c4c3CCC(C)(C)C4)[nH]c2c1` [Example 94]: the IC50 is 4 nM. As for `COC1CCCC(C(=O)N(C)c2ccc3cc(-c4n[nH]c5c4CCC(C)(C)C5)[nH]c3c2)C1` (stereo not shown) [Example 99], the IC50 is 26 nM. Turning to `CC(C(=O)N(CCO)c1ccc2cc(-c3n[nH]c4c3CCC(C)(C)C4)[nH]c2c1)C1CCCCC1` (stereo not shown) [Example 241], the IC50 was 23 nM.

Turning to `COC[C@H]1CCC(=O)N1CC(=O)N(C)c1ccc2cc(-c3n[nH]c4c3CCC(C)(C)C4)[nH]c2c1` [Example 196], the IC50 is 4 nM. In the case of `CN(C(=O)CC1CCCOC1)c1ccc2cc(-c3n[nH]c4c3CCC(C)(C)C4)[nH]c2c1` (stereo not shown) [Example 103], the IC50 is 3 nM.

As for `CC(C)C(=O)N(C)CC(=O)N(C)c1ccc2cc(-c3n[nH]c4c3CCC(C)(C)C4)[nH]c2c1` [Example 199], the IC50 is 2 nM.

For the compound `CN(C(=O)CN1C(=O)CC[C@@H]1CO)c1ccc2cc(-c3n[nH]c4c3CCC(C)(C)C4)[nH]c2c1` [Example 177], the IC50 is 2 nM. With `CC1(C)CCc2c(-c3cc4cc(C(=O)NCc5nccs5)ccc4[nH]3)n[nH]c2C1` [Example 316], the IC50 was 47 nM. The same measure, in the same setting: the result for `CN(C(=O)C(C)(C)O)c1ccc2cc(-c3n[nH]c4c3CCC(C)(C)C4)[nH]c2c1` [Example 37] reads 8 nM. The same measure, in the same setting: the result for `COC(=O)CNC(=O)c1ccc2[nH]c(-c3n[nH]c4c3CCC(C)(C)C4)cc2c1` [Example 305] reads 13 nM; that for `CN(CC(=O)N(C)c1ccc2cc(-c3n[nH]c4c3CCC(C)(C)C4)[nH]c2c1)C(=O)OCc1ccccc1` [Example 178], 4 nM.

Consider `CN(C(=O)[C@@H]1CCCN1C)c1ccc2cc(-c3n[nH]c4c3CCC(C)(C)C4)[nH]c2c1` [Example 148], for which the IC50 was 19 nM. The same measure, in the same setting: under `CCOCC(=O)N(C)c1ccc2cc(-c3n[nH]c4c3CCC(C)(C)C4)[nH]c2c1` [Example 44] stands below 3 nM. On to `CC1(C)CCc2c(-c3cc4cc(C(N)=O)ccc4[nH]3)n[nH]c2C1` [Example 297], for which the concentration for half-maximal inhibition (IC50) is 48 nM.

`CC1(C)CCc2c(-c3cc4cc(C(=O)NCc5ccoc5)ccc4[nH]3)n[nH]c2C1` [Example 318]: the IC50 was 45 nM.

On to `CN(C(=O)CN1CCCCC1=O)c1ccc2cc(-c3n[nH]c4c3CCC(C)(CO)C4)[nH]c2c1` (stereo not shown) [Example 8, N-[2-(6-hydroxymethyl-6-methyl-4,5,6,7-tetrahydro-1H-indazol-3-yl)-1H-indol-6-yl]-N-methyl-2-(2-oxopiperidin-1-yl)acetamide], for which the IC50 was 3 nM. Take `CCC(OC)C(=O)N(C)c1ccc2cc(-c3n[nH]c4c3CCC(C)(C)C4)[nH]c2c1` (stereo not shown) [Example 50]: the IC50 was 4 nM. As to `CN(C(=O)CN1CCC(C)(C)C1=O)c1ccc2cc(-c3n[nH]c4c3CCC(C)(C)C4)[nH]c2c1` [Example 183], the IC50 is 1 nM.

Take `CN(C)CCN(C(=O)CC1CCOCC1)c1ccc2cc(-c3n[nH]c4c3CCC(C)(C)C4)[nH]c2c1` [Example 221]: the IC50 is 3 nM. Consider `COCC1(C)CCc2c(-c3cc4ccc(N(C)C(=O)CN5CCCCC5=O)cc4[nH]3)n[nH]c2C1` (stereo not shown) [Example 347], for which the concentration for half-maximal inhibition (IC50) was 4 nM.

`COCCN(C(=O)CN1C(=O)COC[C@H]1C)c1ccc2cc(-c3n[nH]c4c3CCC(C)(C)C4)[nH]c2c1` [Example 262]: the half-maximal inhibitory concentration (IC50) was 3 nM.

As to `COCC(=O)N(C)c1ccc2cc(-c3n[nH]c4c3CC[C@@H](C)C4)[nH]c2c1` [Example 353], the IC50 is 16 nM. Same read-out and setting: under `CC1(C)CCc2c(-c3cc4ccc(N(CCO)C(=O)C5CCCC5)cc4[nH]3)n[nH]c2C1` [Example 231] stands 2 nM. Still for that read-out and setting: under `COCCN(C(=O)CN1C[C@@H](C)OCC1=O)c1ccc2cc(-c3n[nH]c4c3CCC(C)(C)C4)[nH]c2c1` [Example 283] stands 2 nM.

Consider `CN(C(=O)CN1CCCS1(=O)=O)c1ccc2cc(-c3n[nH]c4c3CCC(C)(C)C4)[nH]c2c1` [Example 138], for which the half-maximal inhibitory concentration (IC50) was 3 nM.

For the compound `CCN(C(=O)CN1C[C@H](C)OCC1=O)c1ccc2cc(-c3n[nH]c4c3CCC(C)(C)C4)[nH]c2c1` [Example 279], the IC50 was below 1 nM. Consider `COCCN(C(=O)CN1CC(C)(C)OCC1=O)c1ccc2cc(-c3n[nH]c4c3CCC(C)(C)C4)[nH]c2c1` [Example 278], for which the IC50 is 1 nM.

Regarding `CC(C)OCCNC(=O)c1ccc2[nH]c(-c3n[nH]c4c3CCC(C)(C)C4)cc2c1` [Example 307], the IC50 is 61 nM. The same measure, in the same setting: the result for `CC(C)C(C(=O)N(C)c1ccc2cc(-c3n[nH]c4c3CCC(C)(C)C4)[nH]c2c1)N1CCOCC1` (stereo not shown) [Example 173] reads 13 nM.

With `CN(C(=O)C1CCOC1)c1ccc2cc(-c3n[nH]c4c3CCC(C)(C)C4)[nH]c2c1` (stereo not shown) [Example 66], the IC50 is 3 nM.

As to `CC(C(=O)N(C)c1ccc2cc(-c3n[nH]c4c3CCC(C)(C)C4)[nH]c2c1)N1CCCCC1=O` (stereo not shown) [Example 133], the IC50 is 10 nM. On the same count and under the same terms, under `CC1(C)CCc2c(-c3cc4ccc(NC(=O)c5ccccc5)cc4[nH]3)n[nH]c2C1` [Example 27] stands 327 nM; under `CCN(CC)C(=O)c1ccc2[nH]c(-c3n[nH]c4c3CCC(C)(C)C4)cc2c1` [Example 330], 80 nM. Still for that read-out and setting: the result for `CC1(C)CCc2c(-c3cc4ccc(N(CCO)C(=O)CC5CCCCC5)cc4[nH]3)n[nH]c2C1` [Example 235] reads 8 nM. Take `CN(C(N)=O)c1ccc2cc(-c3n[nH]c4c3CCC(C)(C)C4)[nH]c2c1` [Example 54]: the half-maximal inhibitory concentration (IC50) is 18 nM. Same read-out and setting: under `CN(C(=O)CCC1CCCCC1)c1ccc2cc(-c3n[nH]c4c3CCC(C)(C)C4)[nH]c2c1` [Example 93] stands 48 nM; under `COC(CO)C(=O)N(C)c1ccc2cc(-c3n[nH]c4c3CCC(C)(C)C4)[nH]c2c1` (stereo not shown) [Example 48], 6 nM; under `COCC(NC(=O)c1ccc2cc(-c3n[nH]c4c3CCC(C)(C)C4)[nH]c2c1)C(C)C` (stereo not shown) [Example 24], 25 nM.

Turning to `CC(C)C(O)C(=O)N(C)c1ccc2cc(-c3n[nH]c4c3CCC(C)(C)C4)[nH]c2c1` (stereo not shown) [Example 67], the IC50 is 4 nM. Still for that read-out and setting: the result for `CO[C@H]1CC[C@H](C(=O)N(C)c2ccc3cc(-c4n[nH]c5c4CCC(C)(C)C5)[nH]c3c2)CC1` [Example 82] reads 7 nM; that for `CC(C(=O)N(C)c1ccc2cc(-c3n[nH]c4c3CCC(C)(C)C4)[nH]c2c1)N1CCC(O)CC1` (stereo not shown) [Example 108], 15 nM.
